Series [1] has as its system patients suffering from Crohn's disease. Put plainly: Clinical course, response and tolerability in Crohn's disease patient case reports. It counts as in vivo, human. Particulars: for adverse reaction: affecting skin and joints. An excerpt:
(§1) Several patients suffering from Crohn's disease for at least 5 years without sufficient response to standard treatment were given rebamipide tablets three times a day. […] The severity of the disease was quantified by the CDAI, and the level of inflammation by fecal calprotectin.

The next series relates to Calprotectin (FC). The series can be described thus: Fecal calprotectin in stool samples by ELISA kit (EK-CAL, Bühlmann). It counts as in vivo, human. As to conditions: for fecal calprotectin level: Example 1; for calprotectin: Example 2.
Source text: as §1
Calprotectin (FC) is a small calcium-binding protein that is used as a biomarker for inflammatory bowel diseases since its fecal concentration correlates well with the disease severity. Calprotectin values lower than 200 μg/g feces are considered the normal level. It was measured in stool samples using commercially available enzyme-linked immunosorbent assay (ELISA) kit (EK-CAL, Bühlmann).
On the technique in general: In an ELISA, binding on a coated surface is turned into a signal by an enzyme label.

Series [2] relates to patients suffering from Crohn's disease. Put plainly: Crohn's Disease Activity Index (CDAI) in Crohn's disease patients given rebamipide tablets. It counts as in vivo, human.
Source text: as §1
Crohn's Disease Activity Index (CDAI) is a research tool used to quantify the symptoms of patients with Crohn's disease. It consists of eight factors, each summed after adjustment with a weighting factor. Remission of Crohn's disease is defined as CDAI below 150, whereas severe disease is defined as a value of greater than 450.

For series [3] the following is noted: oral administration; cited from earlier work.
The mark [4] stands for this setting: summary of patient sample, add-on to corticosteroid.

Here are results for 7 compounds from patent US20220304998A1, “REBAMIPIDE FOR USE IN PREVENTION AND TREATMENT OF CROHN'S DISEASE” (SQUARE POWER LTD., priority 2019, published 2022).

On to “infliximab: monoclonal antibody against TNFα”, for which the adverse reaction result in series [1] (Example 1) is recorded as “immunological response had developed”.
As for `O=C(NC(Cc1cc(=O)[nH]c2ccccc12)C(=O)O)c1ccc(Cl)cc1` (stereo not shown) [rebamipide, 2-[(4-chlorobenzoyl)amino]-3-(2-oxo-1H-quinolin-4-yl)propanoic acid], the fecal calprotectin level in the series with Calprotectin (FC) (after another 6 weeks, corticosteroid dose reduced to half, rebamipide 100 mg three times daily) was determined as 63 µg/g; in the series on Calprotectin (FC) (rebamipide 100 mg three times daily with methylprednisolon 24 mg/day, after 6 weeks, relapse value up to 1939), 228 µg/g. Further, the calprotectin with Calprotectin (FC) (after another 6 weeks, rebamipide 100 mg t.i.d., prednisone tapered from 30 mg/day by 10 mg every 2 weeks) came out at 110 µg/g; in the series with Calprotectin (FC) (rebamipide 200 mg t.i.d. add-on to prednisone 40 mg/day, after 6 weeks, relapse value 2215) it was 356 µg/g. In the series with Calprotectin (FC) (Example 3, rebamipide 100 mg three times daily with prednisone 50 mg/day, 25 mg after 14 days, after another 6 weeks, initial value up to 1051), this compound yielded a calprotectin level of 122 µg/g. Further, in the series on Calprotectin (FC) (setting [4]), the “effect on calprotectin levels” value is on record as “normalize calprotectin levels”. Moreover, the CDAI in series [2] (Example 1, person, Crohn's ileocolitis, rebamipide 100 mg three times daily with methylprednisolon 24 mg/day, after 6 weeks, relapse value 358) is 181 points; in series [2] (Example 1, after another 6 weeks, corticosteroid dose reduced to half, rebamipide 100 mg three times daily), 73 points; in series [2] (Example 2, person, Crohn's ileocolitis, rebamipide 200 mg t.i.d. add-on to prednisone 40 mg/day, after 6 weeks, relapse value 479), 225 points; in series [2] (Example 2, after another 6 weeks, rebamipide 100 mg t.i.d., prednisone tapered from 30 mg/day by 10 mg every 2 weeks) it was 84 points; in series [2] (Example 3, person, Crohn's ileitis, rebamipide 100 mg three times daily with prednisone 50 mg/day, 25 mg after 14 days, after another 6 weeks, initial value 377), 98 points. For the same compound, in series [3], the “absorption in the GI tract” value is recorded as “poorly absorbed”. For the same compound, the “disease activity on rebamipide only after corticosteroid withdrawal” value in series [1] (Example 1, patient continued only rebamipide) is recorded as “No worsening in disease activity”. The “disease activity on rebamipide only after prednisone discontinuation” value in series [1] (Example 2, patient continued only rebamipide 100 mg t.i.d.) is on record as “No worsening in disease activity”. Moreover, the clinical symptoms entry in series [1] (Example 3, after 14 days of rebamipide 100 mg three times daily with prednisone 50 mg/day) is recorded as “alleviation of the clinical symptoms”. Besides, in series [1] (Example 3, patient continued only rebamipide), the “disease activity on rebamipide only after prednisone withdrawal” value is given as “No worsening in disease activity”. Further, in series [1] (rebamipide alone, long-term), the maintenance of remission result is “able to maintain remission”. Further, the “tolerability of long-term therapy” value in series [1] (rebamipide alone, long-term) is “well tolerated”. Also, the “remission in patients who exhausted standard treatment options” value in series [1] (setting [4]) is recorded as “induce remission”.
For the compound `C[C@H]1C[C@@H]2[C@H]([C@@H](O)C[C@@]3(C)[C@H]2CC[C@]3(O)C(=O)CO)[C@@]2(C)C=CC(=O)C=C12` [methylprednisolon], the “treatment outcome of corticosteroid alone after relapse” value in series [1] (Example 1, methylprednisolon 24 mg/day before rebamipide) was “without success”.
`CCCC1O[C@@H]2C[C@H]3[C@@H]4CCC5=CC(=O)C=C[C@]5(C)[C@H]4[C@@H](O)C[C@]3(C)[C@]2(C(=O)CO)O1` (stereo partly shown) [budesonide]: the “duration of maintained remission” value in series [1] (Example 3, therapy with budesonide and mesalazine) is on record as “about 10 years”.
Consider adalimumab, for which the adverse reaction entry in series [1] (Example 1) is reported as “immunological response had developed”.
Take `Cn1cnc([N+](=O)[O-])c1Sc1ncnc2nc[nH]c12` [azathioprine]: the “adverse reaction leading to discontinuation” value in series [1] (Example 3, discontinued after two weeks) is “acute pancreatitis”.
On to `C[C@]12C=CC(=O)C=C1CC[C@@H]1[C@@H]2C(=O)C[C@@]2(C)[C@H]1CC[C@]2(O)C(=O)CO` [prednisone], for which the “treatment outcome of corticosteroid alone after relapse” value in series [1] (Example 2, prednisone 40 mg/day before rebamipide) is reported as “not able to reach remission”.
